Data set [1] can be described thus: in vitro. The procedure: After the lapse of a predetermined time, a 30-μl portion was taken out of the reaction solution, transferred into 170 μl of 0.1% aqueous solution of trifluoroacetic acid (TFA), and stored at −80° C. until analysis.
Quantitative analysis was performed for AM contained in the thus-obtained samples of a reaction mixture with serum or plasma by using specific fluoroimmunoassay (Tosoh Corporation) with two antibodies differing in their recognition sites. […] In the figure, the abscissa represents reaction time (min), and the ordinate represents concentration of AM (UM).
In the figure, the abscissa represents reaction time (min), and the ordinate represents concentration of AM or an AM analog (μM).
In the figure, the abscissa represents the type of AM or an AM analog, and the ordinate represents residual rates of AM or an AM analog (%).

Data set [2] can be described thus: in vitro. Particulars: Experiment VIII; 10^−7 M, 37° C.; 1 hour after the beginning of reaction. The procedure:
The stabilities of the AM analog peptides in serum were evaluated with the same procedure as in Experiment I except the following procedure. […] A reaction mixture containing 4 μL of phosphate buffer, 20 μL of human serum (Sigma-Aldrich Co. LLC, USA), and 14 μL of water was prepared. To the reaction mixture, 2 μL of AM or an AM analog peptide (2×10^−6 M, final concentration: 10^−7 M) was added, and reaction was initiated at 37° C. The reaction was terminated by addition of 160 μL of ELISA buffer to the reaction mixture 0, 1, or 4 hours after the beginning of reaction. […] In the figure, the abscissa represents reaction time (hr), and the ordinate represents concentration in serum of AM or an AM analog (%) represented as relative values to concentration of AM or an AM analog at the beginning of reaction (i.e., 0 hours after the beginning of reaction).

For data set [3] the following is noted: 50 nmol/kg subcutaneous, Experiment VI.
Protocol: (§1) Eight-week-old male Wistar rats were purchased from Charles River Laboratories Japan, Inc. The rats were grown with normal feeds in the absence of specific pathogens under cycles of a 12-hour light period and a 12-hour dark period. […] To determine plasma AM concentrations, 50 nmol/kg of AM or an AM analog was subcutaneously administered. A peripheral blood sample was collected from the tail vein into a test tube (containing 21 μg of aprotinin and 0.3 mg of EDTA-2Na) at predetermined times (0, 15, 30, 60, and 120 minutes after administration). The test tube was centrifuged at 1,700×g to afford plasma.
A short description of data set [4]: in vivo. As to conditions: male, Wistar, rat, sc, 50 nmol/kg; for AUC: in vivo.
Protocol: as §1
Data set [5] is described as follows: in vivo. The procedure:
Seven-week-old male Wistar rats were prepared, and grown with normal feeds. To determine plasma AM concentrations, 50 nmol/kg of AM or an AM analog was subcutaneously administered. A peripheral blood sample was collected from the tail vein into a Kantan tube® (containing heparin Na, Eiken Chemical Co., Ltd., Tochigi, Japan) at predetermined times (0, 15, 30, 60, and 120 minutes after administration). The tube was centrifuged at 2,000×g. Plasma was collected from the tube, and transferred into a test tube (containing 21 μg of aprotinin and 0.3 mg of EDTA-2Na) and stored. […] In the figure, the abscissa represents elapsed time after subcutaneous administration (hr), and the ordinate represents concentration in plasma of AM or an AM analog (pM). In addition, maximum concentrations in blood (Cmax) of AM or the AM analogs in rat plasma after subcutaneous administration were calculated.

Data set [6] has as its target AM type 1 receptor (AMI receptor) (UniProt Q16602 23-461; O60895 43-175, limits assumed). In words: cell-based or functional assay.

Read-outs that look alike come from different tables or passages of the source. Where a SMILES comes first, the peptide text is derived from it. Bridges are numbered along the chain shown (N, C = ends). Where no end group is shown, it is not given here.

Broadly, the AUC is concentration integrated over time. Lower therefore signals low exposure. By Cmax is commonly meant the peak of the concentration-time curve. Usually amount remaining stands for the share of the starting amount still present when the sample was taken. Read a high amount remaining as less turnover. What is called half-life is how long it takes for the measured level to halve. Read a low half-life as rapid decline.

Sequence of AM type 1 receptor (AMI receptor) (Q16602 23-461 limits assumed, chain 1 of 2): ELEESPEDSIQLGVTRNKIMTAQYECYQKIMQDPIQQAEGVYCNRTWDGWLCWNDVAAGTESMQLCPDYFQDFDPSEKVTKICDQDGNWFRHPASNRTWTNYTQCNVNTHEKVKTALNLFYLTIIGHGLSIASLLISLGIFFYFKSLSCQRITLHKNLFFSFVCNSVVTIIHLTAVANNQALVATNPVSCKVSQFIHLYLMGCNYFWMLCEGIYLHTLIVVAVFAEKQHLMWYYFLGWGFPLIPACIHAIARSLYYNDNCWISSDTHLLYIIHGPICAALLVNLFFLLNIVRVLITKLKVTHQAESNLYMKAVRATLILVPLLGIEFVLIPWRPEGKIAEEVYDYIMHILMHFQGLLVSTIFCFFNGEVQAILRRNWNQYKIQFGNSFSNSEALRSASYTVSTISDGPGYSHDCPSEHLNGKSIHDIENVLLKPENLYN
Sequence of AM type 1 receptor (AMI receptor) (O60895 43-175 limits assumed, chain 2 of 2): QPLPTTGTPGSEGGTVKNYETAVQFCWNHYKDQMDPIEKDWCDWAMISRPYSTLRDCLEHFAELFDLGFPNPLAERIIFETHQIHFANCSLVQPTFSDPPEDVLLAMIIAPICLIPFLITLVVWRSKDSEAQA

As to `CC[C@H](C)[C@H](NC(=O)[C@H](CCC(N)=O)NC(=O)[C@H](Cc1c[nH]cn1)NC(=O)[C@H](C)NC(=O)[C@H](CC(C)C)NC(=O)[C@H](CCCCN)NC(=O)[C@H](CCC(N)=O)NC(=O)[C@@H](NC(=O)[C@@H](NC(=O)[C@@H]1CSSC[C@H](NC(=O)CNC(=O)[C@H](Cc2ccccc2)NC(=O)[C@@H](N)CO)C(=O)N[C@@H](CCCNC(=N)N)C(=O)N[C@@H](Cc2ccccc2)C(=O)NCC(=O)N[C@@H]([C@@H](C)O)C(=O)N1)[C@@H](C)O)C(C)C)C(=O)N[C@@H](Cc1ccc(O)cc1)C(=O)N[C@@H](CCC(N)=O)C(=O)N[C@@H](Cc1ccccc1)C(=O)N[C@H](C(=O)N[C@@H](CC(=O)O)C(=O)N[C@@H](CCCCN)C(=O)N[C@@H](CC(=O)O)C(=O)N[C@@H](CCCCN)C(=O)N[C@@H](CC(=O)O)C(=O)N[C@@H](CC(N)=O)C(=O)N[C@H](C(=O)N[C@@H](C)C(=O)N1CCC[C@H]1C(=O)N[C@@H](CCCNC(=N)N)C(=O)N[C@@H](CO)C(=O)N[C@@H](CCCCN)C(=O)N[C@H](C(=O)N[C@@H](CO)C(=O)N1CCC[C@H]1C(=O)N[C@@H](CCC(N)=O)C(=O)NCC(=O)N[C@@H](Cc1ccc(O)cc1)C(N)=O)[C@@H](C)CC)C(C)C)[C@@H](C)O` [hAM(13-52), SFGCRFGTCTVQKLAHQIYQFTDKDKDNVAPRSKISPQGY-CONH2, reference compound], the “concentration of AM or AM analog in reaction mixture with serum” value in “in vitro [1]” (Experiment IV, 240 minutes after the beginning of reaction) is listed as “below the detection limit”. Also, in the data set “in vitro [1]” (Experiment IV, 240 minutes vs 0 minutes after the beginning of reaction), the “residual rate in reaction mixture with serum” value is recorded as 0.2%. In addition, in the data set “in vitro [2]”, the “presence in reaction mixture with human serum” value was “substantially disappeared”. In data set [3], the “detection in rat plasma after subcutaneous administration” value is on record as “hardly detected”. This molecule also displayed an AUC in “in vivo [4]” of 0.0832 nM·h. The molecule also returned a Cmax in “in vivo [4]” (plasma) of 0.165 nM.

With `CC[C@H](C)[C@H](NC(=O)[C@H](CCC(N)=O)NC(=O)[C@H](Cc1c[nH]cn1)NC(=O)[C@H](C)NC(=O)[C@H](CC(C)C)NC(=O)[C@H](CCCCN)NC(=O)[C@H](CCC(N)=O)NC(=O)[C@@H](NC(=O)[C@@H](NC(=O)[C@@H]1CSSC[C@H](NC(=O)CNC(=O)[C@H](Cc2ccccc2)NC(=O)[C@@H](N)CO)C(=O)N[C@@H](CCCNC(=N)N)C(=O)N[C@@H](Cc2ccccc2)C(=O)NCC(=O)N[C@@H]([C@@H](C)O)C(=O)N1)[C@@H](C)O)C(C)C)C(=O)N[C@@H](Cc1ccc(O)cc1)C(=O)N[C@@H](CCC(N)=O)C(=O)N[C@@H](Cc1ccccc1)C(=O)N[C@H](C(=O)N[C@@H](CC(=O)O)C(=O)N[C@@H](CCCCN)C(=O)N[C@@H](CC(=O)O)C(=O)N[C@@H](CCCCN)C(=O)N[C@@H](CC(=O)O)C(=O)N[C@@H](CC(N)=O)C(=O)N[C@H](C(=O)N[C@@H](C)C(=O)N1CCC[C@H]1C(=O)N[C@@H](C)C(=O)N[C@@H](CO)C(=O)N[C@@H](CCCCN)C(=O)N[C@H](C(=O)N[C@@H](CO)C(=O)N1CCC[C@H]1C(=O)N[C@@H](CCC(N)=O)C(=O)NCC(=O)N[C@@H](Cc1ccc(O)cc1)C(N)=O)[C@@H](C)CC)C(C)C)[C@@H](C)O` [[Ala-44]hAM(13-52), SFGCRFGTCTVQKLAHQIYQFTDKDKDNVAPASKISPQGY-CONH2] (H-SFGCRFGTCTVQKLAHQIYQFTDKDKDNVAPASKISPQGY-NH2; disulfide 4-9; N-terminus assumed), the “change in amount with the lapse of reaction time in reaction mixture with serum” value in “in vitro [1]” (Experiment IV, up to 240 minutes) is “almost no decrease or only slight decrease in amount”. The same molecule showed an amount remaining at 4 h in the data set “in vitro [1]” (serum, pH 7.1) of 96.4%. In addition, the “detection in rat plasma after subcutaneous administration” value is recorded as “detected in rat plasma 15 minutes after administration” in “in vivo [5]” (50 nmol/kg subcutaneous, Experiment X) and “detected in rat plasma 15 minutes after administration” in data set [3]. Further, the Cmax in “in vivo [5]” (male, Wistar, rat, in vivo, sc, 50 nmol/kg) came out at 0.777 nM; in “in vivo [4]” (plasma), 1.17 nM. In addition, the “Cmax relative to that of hAM(1-52)” value in data set [3] (rat) is reported as not below 100 times. In the data set “in vivo [4]”, the AUC is 0.578 nM·h. Besides, in the data set “in vivo [4]” (plasma), the half-life was 1.37 h.

B1: [Gly-44]hAM(13-52) (peptide)
peptide: SFGCRFGTCTVQKLAHQIYQFTDKDKDNVAPGSKISPQGY-NH2
modifications: disulfide 4-9; N-terminus assumed
SMILES: CC[C@H](C)[C@H](NC(=O)[C@H](CCC(N)=O)NC(=O)[C@H](Cc1c[nH]cn1)NC(=O)[C@H](C)NC(=O)[C@H](CC(C)C)NC(=O)[C@H](CCCCN)NC(=O)[C@H](CCC(N)=O)NC(=O)[C@@H](NC(=O)[C@@H](NC(=O)[C@@H]1CSSC[C@H](NC(=O)CNC(=O)[C@H](Cc2ccccc2)NC(=O)[C@@H](N)CO)C(=O)N[C@@H](CCCNC(=N)N)C(=O)N[C@@H](Cc2ccccc2)C(=O)NCC(=O)N[C@@H]([C@@H](C)O)C(=O)N1)[C@@H](C)O)C(C)C)C(=O)N[C@@H](Cc1ccc(O)cc1)C(=O)N[C@@H](CCC(N)=O)C(=O)N[C@@H](Cc1ccccc1)C(=O)N[C@H](C(=O)N[C@@H](CC(=O)O)C(=O)N[C@@H](CCCCN)C(=O)N[C@@H](CC(=O)O)C(=O)N[C@@H](CCCCN)C(=O)N[C@@H](CC(=O)O)C(=O)N[C@@H](CC(N)=O)C(=O)N[C@H](C(=O)N[C@@H](C)C(=O)N1CCC[C@H]1C(=O)NCC(=O)N[C@@H](CO)C(=O)N[C@@H](CCCCN)C(=O)N[C@H](C(=O)N[C@@H](CO)C(=O)N1CCC[C@H]1C(=O)N[C@@H](CCC(N)=O)C(=O)NCC(=O)N[C@@H](Cc1ccc(O)cc1)C(N)=O)[C@@H](C)CC)C(C)C)[C@@H](C)O
As to B1, the “logarithmic values of 50%-effective concentration (pEC50) for intracellular cAMP concentration-increasing activity” value in data set [6] worked out at 7.96 pEC50.

B2: [des-Arg-44]hAM(13-52) (peptide)
peptide: SFGCRFGTCTVQKLAHQIYQFTDKDKDNVAPSKISPQGY-NH2
modifications: disulfide 4-9; N-terminus assumed
SMILES: CC[C@H](C)[C@H](NC(=O)[C@H](CCC(N)=O)NC(=O)[C@H](Cc1c[nH]cn1)NC(=O)[C@H](C)NC(=O)[C@H](CC(C)C)NC(=O)[C@H](CCCCN)NC(=O)[C@H](CCC(N)=O)NC(=O)[C@@H](NC(=O)[C@@H](NC(=O)[C@@H]1CSSC[C@H](NC(=O)CNC(=O)[C@H](Cc2ccccc2)NC(=O)[C@@H](N)CO)C(=O)N[C@@H](CCCNC(=N)N)C(=O)N[C@@H](Cc2ccccc2)C(=O)NCC(=O)N[C@@H]([C@@H](C)O)C(=O)N1)[C@@H](C)O)C(C)C)C(=O)N[C@@H](Cc1ccc(O)cc1)C(=O)N[C@@H](CCC(N)=O)C(=O)N[C@@H](Cc1ccccc1)C(=O)N[C@H](C(=O)N[C@@H](CC(=O)O)C(=O)N[C@@H](CCCCN)C(=O)N[C@@H](CC(=O)O)C(=O)N[C@@H](CCCCN)C(=O)N[C@@H](CC(=O)O)C(=O)N[C@@H](CC(N)=O)C(=O)N[C@H](C(=O)N[C@@H](C)C(=O)N1CCC[C@H]1C(=O)N[C@@H](CO)C(=O)N[C@@H](CCCCN)C(=O)N[C@H](C(=O)N[C@@H](CO)C(=O)N1CCC[C@H]1C(=O)N[C@@H](CCC(N)=O)C(=O)NCC(=O)N[C@@H](Cc1ccc(O)cc1)C(N)=O)[C@@H](C)CC)C(C)C)[C@@H](C)O
In the case of B2, the “logarithmic values of 50%-effective concentration (pEC50) for intracellular cAMP concentration-increasing activity” value in data set [6] turned out to be 8.71 pEC50.

These data come from patent US12637499B2, “Adrenomedullin analog, method for producing the same, and pharmaceutical use thereof” (priority 2020, dated 2026).
